Assay results taken from ChEMBL document CHEMBL5303304, “EUbOPEN Chemogenomics Library - IncuCyte” (2023).

Tests used:
Format in all cases: toxicity, cell-based
HEK-293T = assay: Incucyte cell viability with HEK293T; conditions: human, 10 µM, compound concentration 10 uM
Fibroblast = assay: Incucyte cell viability with human fibroblast; conditions: 10 µM, compound concentration 10 uM
U2OS = assay: Incucyte cell viability with U2OS; conditions: human, 10 µM, compound concentration 10 uM
Also: unitless GR value; below 1 slowed growth and below 0 cell loss.

Row | SMILES | Growth Rate (HEK-293T; 0 h, replicate number 1) | Growth Rate (HEK-293T; 0 h, replicate number 2) | Growth Rate (HEK-293T; 24 h, replicate number 2) | Growth Rate (Fibroblast; 0 h, replicate number 1) | Growth Rate (U2OS; 0 h, replicate number 1) | Growth Rate (U2OS; 24 h, replicate number 2) | Growth Rate (HEK-293T; 24 h, replicate number 1) | Growth Rate (Fibroblast; 0 h, replicate number 2) | Growth Rate (Fibroblast; 6 h, replicate number 2) | Growth Rate (Fibroblast; 12 h, replicate number 2) | Growth Rate (Fibroblast; 18 h, replicate number 1) | Growth Rate (Fibroblast; 18 h, replicate number 2) | Growth Rate (Fibroblast; 24 h, replicate number 2) | Growth Rate (U2OS; 12 h, replicate number 1) | Growth Rate (U2OS; 12 h, replicate number 2) | Growth Rate (U2OS; 18 h, replicate number 1) | Growth Rate (HEK-293T; 12 h, replicate number 2) | Growth Rate (HEK-293T; 18 h, replicate number 2) | Growth Rate (U2OS; 6 h, replicate number 2) | Growth Rate (U2OS; 18 h, replicate number 2) | also measured
1 | Cn1ncc(NC(=O)c2nc(-c3c(F)cccc3F)sc2N)c1N1CC[C@@H](N)[C@H](F)CC1 | -1 | -0.31 | 0.77 | -1 | -1 | 0.96 |  |  |  |  |  |  |  |  |  |  |  |  |  |  | 
2 | NC1(c2ccc(-c3nc4c(O)ccnn4c3-c3ccccc3)cc2)CCC1 | -0.07 | -0.33 |  | -1 |  | 0.93 | 0.95 | -0.33 | 0.35 | 0.9 | 0.95 | 0.83 | 0.93 | 0.63 | 0.83 | 0.66 |  |  |  |  | Growth Rate (U2OS; 0 h, replicate number 2): -0.99; Growth Rate (U2OS; 6 h, replicate number 1): 0.34; Growth Rate (U2OS; 24 h, replicate number 1): 0.89
3 | CN(C(=O)c1cnn2cccnc12)c1cc2c(cc1N1CCOCC1)C(=O)N(C[C@@H](F)C(C)(C)O)C2 | 0.82 | 0.66 | 0.92 |  | 0.99 | 0.85 |  | 0.71 | 0.95 | 0.89 | 0.7 |  |  | 0.98 | -0.78 | 0.75 | 0.85 | 1 | 0.75 | 0.92 | Growth Rate (HEK-293T; 6 h, replicate number 2): 0.77; Growth Rate (Fibroblast; 6 h, replicate number 1): 0.38; Growth Rate (Fibroblast; 12 h, replicate number 1): 0.84; Growth Rate (Fibroblast; 24 h, replicate number 1): 0.82; Growth Rate (U2OS; 6 h, replicate number 1): 0.54
4 | COc1ccccc1Nc1nc(-c2nn(Cc3c(F)cc(OCCCO)cc3F)c3ccccc23)ncc1OC | 0.17 |  |  |  |  | 0.96 |  | -0.85 | 0.53 | 0.41 | 0.85 | 0.58 | 0.85 |  | 0.93 |  |  |  | 0.89 | 1 | Growth Rate (Fibroblast; 6 h, replicate number 1): 0.3; Growth Rate (Fibroblast; 12 h, replicate number 1): 0.59; Growth Rate (Fibroblast; 24 h, replicate number 1): 0.77
5 | COc1cnccc1Nc1nc(-c2nn(Cc3c(F)cc(OCCO)cc3F)c3ccccc23)ncc1OC | -1 | -0.96 | 0.21 |  | -1 | 0.09 |  |  | 0.31 | 0.04 | -0.14 | -0.07 | -0.03 | -0.2 | 0.06 | -0.22 | -0.01 | 0.13 | -0.04 | 0.21 | Growth Rate (HEK-293T; 6 h, replicate number 2): -0.05; Growth Rate (Fibroblast; 6 h, replicate number 1): -0.29; Growth Rate (Fibroblast; 12 h, replicate number 1): -0.23; Growth Rate (Fibroblast; 24 h, replicate number 1): -0.14; Growth Rate (U2OS; 0 h, replicate number 2): -0.09; Growth Rate (U2OS; 6 h, replicate number 1): -0.05; Growth Rate (U2OS; 24 h, replicate number 1): -0.17
6 | CN(C)CC#Cc1ccc2[nH]c3c(c2c1)-c1nc(N)ncc1CCC3 | -0.2 | 0.54 | -0.05 | -1 | -0.89 | 0.36 | 0.12 |  |  | 0.69 | 0.27 | 0.42 | 0.33 | 0.96 | 0.59 | 0.86 | -0.38 | -0.23 | 0.82 | 0.45 | Growth Rate (HEK-293T; 6 h, replicate number 1): -0.19; Growth Rate (HEK-293T; 6 h, replicate number 2): -0.58; Growth Rate (HEK-293T; 12 h, replicate number 1): -0.03; Growth Rate (HEK-293T; 18 h, replicate number 1): 0.11; Growth Rate (Fibroblast; 6 h, replicate number 1): 0.76; Growth Rate (Fibroblast; 12 h, replicate number 1): 0.45; Growth Rate (Fibroblast; 24 h, replicate number 1): 0.2; Growth Rate (U2OS; 24 h, replicate number 1): 0.86
7 | CCOc1ccc(S(=O)(=O)Nc2ccc(Cl)cc2C#Cc2cnc(C(=O)[O-])cc2OC)c2ncccc12.[K+] | 0.28 | -0.2 | 0.87 | -0.78 | -0.87 | 0.81 | 0.98 |  | 0.49 | 0.49 | 1 | 0.43 | 0.53 | 0.95 | -0.91 | 0.94 | 0.97 | 0.87 | 0.58 | -0.85 | Growth Rate (HEK-293T; 6 h, replicate number 2): 0.66; Growth Rate (Fibroblast; 24 h, replicate number 1): 0.99; Growth Rate (U2OS; 0 h, replicate number 2): 0.5
8 | O=C(Nc1snnc1C(=O)Nc1ccc(N2CCCC2)cc1)c1cncc(C(F)(F)F)c1 | 0.43 | 0.78 | 0.9 | -1 | -1 |  | 0.91 | -0.64 | 0.26 | 0.11 |  | 0.43 | 0.59 | -0.58 | 0.81 |  | 0.8 | 0.86 | 0.89 |  | Growth Rate (HEK-293T; 6 h, replicate number 2): 0.54; Growth Rate (HEK-293T; 12 h, replicate number 1): 0.99; Growth Rate (HEK-293T; 18 h, replicate number 1): 0.92; Growth Rate (Fibroblast; 24 h, replicate number 1): 0.96
9 | COc1cc(C(N)=O)ccc1Nc1ncc2c(n1)N(CCC(C)C)[C@H](C)C(=O)N2C | -0.98 | -1 |  | -0.99 | -1 | 0.27 | 0.53 | -0.68 |  |  |  |  | 0.77 | -0.71 | 0.18 | 0.37 |  |  | 0.39 | 0.4 | Growth Rate (U2OS; 24 h, replicate number 1): -0.55
10 | O=C1NC(=NCc2cccs2)SC1=Cc1ccc2ncccc2c1 | -1 | -0.11 | 0.54 | -1 | -1 | 0.39 | 0.75 | -0.82 |  |  |  |  |  | 0.27 | 0.54 | 0 | 0.83 | 0.53 | 0.87 | 0.45 | Growth Rate (HEK-293T; 18 h, replicate number 1): 0.84; Growth Rate (U2OS; 6 h, replicate number 1): 0.68; Growth Rate (U2OS; 24 h, replicate number 1): 0.51
